Laboratory results reported in patent US20130102595A1 (Curis, Inc., priority 2011, published 2013).

Legend:
PI3Kα (p110α/p85α) = molecular target: T1, PI3Kα (p110α/p85α) (Homo sapiens, UniProt P42336); assay: PI3Kα ADP-Glo assay; assay type: biochemical; conditions: 20 μM PIP2, 10 μM ATP, 30 minutes
T1 construct: GST (N); made in house; host or cells: Baculovirus-infected Sf9 cells
Summary of the method: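 Luminescent ADP-Glo detection, after depletion of residual ATP, quantified ADP made by PI3Kα phosphorylating 20 μM PIP2 at 10 μM ATP. The kinase step ran 30 min at room temperature in HEPES pH 7.4 with MgCl2, DTT and orthovanadate, using baculovirus/Sf9-expressed full-length p110α/p85α complex.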

[1] = test system: HDACs (HeLa cell nuclear extracts); assay: HDAC enzymatic activity, Biomol Color de Lys system; assay type: biochemical; conditions: 1 hour, 25° C.
Summary of the method: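 IC50 from sigmoidal fit of developer-terminated fluorescence (ex 350-380/em 440-460 nm). Reaction: 1 h at room temperature (25 °C), HeLa nuclear extract as HDAC source, artificial substrate, buffer of 50 mM Tris/Cl pH 8.0 with 137 mM NaCl, 2.7 mM KCl and 1 mM MgCl2.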

T1 sequence (P42336 whole entry): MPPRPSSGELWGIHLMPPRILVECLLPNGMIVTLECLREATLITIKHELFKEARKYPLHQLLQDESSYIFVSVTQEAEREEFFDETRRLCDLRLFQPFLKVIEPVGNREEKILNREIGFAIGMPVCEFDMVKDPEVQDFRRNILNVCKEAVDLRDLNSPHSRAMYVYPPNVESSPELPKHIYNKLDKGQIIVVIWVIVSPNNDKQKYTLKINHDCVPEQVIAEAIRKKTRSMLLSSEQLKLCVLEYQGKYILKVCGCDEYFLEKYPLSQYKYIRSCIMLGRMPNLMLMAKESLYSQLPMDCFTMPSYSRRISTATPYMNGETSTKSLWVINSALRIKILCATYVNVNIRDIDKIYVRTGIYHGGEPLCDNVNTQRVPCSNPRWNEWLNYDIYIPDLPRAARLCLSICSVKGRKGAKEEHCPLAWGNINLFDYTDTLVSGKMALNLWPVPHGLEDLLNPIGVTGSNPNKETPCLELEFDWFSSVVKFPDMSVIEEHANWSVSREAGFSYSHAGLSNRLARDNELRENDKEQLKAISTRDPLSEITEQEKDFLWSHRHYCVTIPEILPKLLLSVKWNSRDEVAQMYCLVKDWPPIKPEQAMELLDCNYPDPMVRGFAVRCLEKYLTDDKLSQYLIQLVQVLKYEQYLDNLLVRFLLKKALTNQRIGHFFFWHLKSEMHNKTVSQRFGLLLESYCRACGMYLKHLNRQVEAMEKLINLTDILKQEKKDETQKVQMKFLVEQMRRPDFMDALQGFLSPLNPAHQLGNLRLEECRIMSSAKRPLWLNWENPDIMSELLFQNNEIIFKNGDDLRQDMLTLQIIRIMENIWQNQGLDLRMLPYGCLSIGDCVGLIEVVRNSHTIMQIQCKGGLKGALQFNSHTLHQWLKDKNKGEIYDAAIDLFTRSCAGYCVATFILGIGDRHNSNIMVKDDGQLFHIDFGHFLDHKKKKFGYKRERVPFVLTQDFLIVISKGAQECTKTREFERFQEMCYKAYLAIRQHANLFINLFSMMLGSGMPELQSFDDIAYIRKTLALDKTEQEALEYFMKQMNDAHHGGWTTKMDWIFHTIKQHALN
T1 sequence (P27986 whole entry partner): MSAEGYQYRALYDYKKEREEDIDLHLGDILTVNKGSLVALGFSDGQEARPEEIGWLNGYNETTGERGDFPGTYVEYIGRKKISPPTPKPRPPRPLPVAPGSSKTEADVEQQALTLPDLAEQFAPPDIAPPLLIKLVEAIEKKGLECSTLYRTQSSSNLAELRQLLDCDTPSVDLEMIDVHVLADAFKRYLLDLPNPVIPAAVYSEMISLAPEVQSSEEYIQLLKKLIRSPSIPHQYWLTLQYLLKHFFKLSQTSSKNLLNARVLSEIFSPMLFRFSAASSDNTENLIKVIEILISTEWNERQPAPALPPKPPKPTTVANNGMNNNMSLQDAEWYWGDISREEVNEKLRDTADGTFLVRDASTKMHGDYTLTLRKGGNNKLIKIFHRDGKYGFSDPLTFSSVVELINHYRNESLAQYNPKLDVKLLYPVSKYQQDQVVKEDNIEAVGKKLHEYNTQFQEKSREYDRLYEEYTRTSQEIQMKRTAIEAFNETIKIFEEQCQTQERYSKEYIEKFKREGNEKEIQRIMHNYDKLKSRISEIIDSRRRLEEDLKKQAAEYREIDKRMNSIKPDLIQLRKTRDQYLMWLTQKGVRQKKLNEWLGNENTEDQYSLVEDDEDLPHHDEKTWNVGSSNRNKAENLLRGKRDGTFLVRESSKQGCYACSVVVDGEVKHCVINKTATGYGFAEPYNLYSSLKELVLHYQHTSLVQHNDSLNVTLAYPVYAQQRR

| IC50 (PI3Kα (p110α/p85α)) [nM] | melting point [°C] | IC50 [1] [nM] | SMILES |
| --- | --- | --- | --- |
| < 100 | 248 to 252 | < 100 | Cc1ncc(-c2nc(N3CCOCC3)c3sc(NCCCCC(=O)NO)cc3n2)cn1 [Compound 229, N-Hydroxy-5-(2-(2-methylpyrimidin-5-yl)-4-morpholinothieno[3,2-d]pyrimidin-6-ylamino)pentanamide] |
| < 100 | 220 to 225 | < 100 | Nc1ncc(-c2nc(N3CCOCC3)c3sc(NCCCCCC(=O)NO)cc3n2)cn1 [Compound 232, 6-[2-(2-Amino-pyrimidin-5-yl)-4-morpholin-4-yl-thieno[3,2-d]pyrimidin-6-ylamino]-hexanoic acid hydroxyamide] |
| < 100 | 125 to 130 | < 100 | COc1ccc(-c2nc(N3CCOCC3)c3sc(NCCCCCC(=O)NO)cc3n2)cn1 [Compound 233, 6-[2-(6-Methoxy-pyridin-3-yl)-4-morpholin-4-yl-thieno[3,2-d]pyrimidin-6-ylamino]-hexanoic acid hydroxyamide] |
| < 100 | 235 to 240 | < 100 | Nc1ncc(-c2nc(N3CCOCC3)c3sc(NCCCCCCC(=O)NO)cc3n2)cn1 [Compound 234, 7-[2-(2-Amino-pyrimidin-5-yl)-4-morpholin-4-yl-thieno[3,2-d]pyrimidin-6-ylamino]-heptanoic acid hydroxyamide] |
| < 100 | 270 to 275 | < 100 | CNc1ccc(-c2nc(N3CCOCC3)c3sc(C(C)N(C)c4ncc(C(=O)NO)cn4)cc3n2)cn1 (stereo not drawn) [Compound 237, N-Hydroxy-2-(methyl(1-(2-(6-(methylamino)pyridin-3-yl)-4-morpholinothieno[3,2-d]pyrimidin-6-yl)ethyl)amino)pyrimidine-5-carboxamide] |
| < 100 | 200 to 205 | < 100 | CNc1ccc(-c2nc(N3CCOCC3)c3sc(C(C)(C)Nc4ncc(C(=O)NO)cn4)cc3n2)cn1 [Compound 240, N-Hydroxy-2-(2-(2-(6-(methylamino)pyridin-3-yl)-4-morpholinothieno[3,2-d]pyrimidin-6-yl)propan-2-ylamino)pyrimidine-5-carboxamide] |
| 1000 to 10000 | 175 to 178 | < 100 | COc1ccc(-c2nc(N3CCOCC3)c3sc(C(C)(C)N(C)c4ncc(C(=O)NO)cn4)cc3n2)cn1 [Compound 251, N-Hydroxy-2-((2-(2-(6-methoxypyridin-3-yl)-4-morpholinothieno[3,2-d]pyrimidin-6-yl)propan-2-yl)(methyl)amino)pyrimidine-5-carboxamide] |
| < 100 | 259 to 265 | < 100 | COc1ccc(-c2nc(N3CCOCC3)c3sc(S(=O)(=O)Nc4ncc(C(=O)NO)cn4)cc3n2)cn1 [Compound 252, 2-[2-(6-Methoxy-pyridin-3-yl)-4-morpholin-4-yl-thieno[3,2-d]pyrimidine-6-sulfonylamino]-pyrimidine-5-carboxylic acid hydroxyamide] |
| < 100 | 162 to 165 | < 100 | CCOc1ccc(-c2nc(N3CCOCC3)c3sc(CN(C)c4ncc(C(=O)NO)cn4)cc3n2)cn1 [Compound 255, 2-(((2-(6-ethoxypyridin-3-yl)-4-morpholinothieno[3,2-d]pyrimidin-6-yl)methyl)(methyl)amino)-N-hydroxypyrimidine-5-carboxamide] |
| > 10000 | 140 to 143 | < 100 | CN(C)CCOc1ccc(-c2nc(N3CCOCC3)c3sc(CN(C)c4ncc(C(=O)NO)cn4)cc3n2)cn1 [Compound 257, 2-(((2-(6-(2-(Dimethylamino)ethoxy)pyridin-3-yl)-4-morpholinothieno[3,2-d]pyrimidin-6-yl)methyl)(methyl)amino)-N-hydroxypyrimidine-5-carboxamide] |
| > 10000 | 170 to 175 | < 100 | CNCCOc1ccc(-c2nc(N3CCOCC3)c3sc(CN(C)c4ncc(C(=O)NO)cn4)cc3n2)cn1 [Compound 258, N-Hydroxy-2-(methyl((2-(6-(2-(methylamino)ethoxy)pyridin-3-yl)-4-morpholinothieno[3,2-d]pyrimidin-6-yl)methyl)amino)pyrimidine-5-carboxamide] |
| > 10000 | 110 to 115 | < 100 | CN(Cc1cc2nc(-c3ccc(OCCN)nc3)nc(N3CCOCC3)c2s1)c1ncc(C(=O)NO)cn1 [Compound 259, 2-(((2-(6-(2-Aminoethoxy)pyridin-3-yl)-4-morpholinothieno[3,2-d]pyrimidin-6-yl)methyl)(methyl)amino)-N-hydroxypyrimidine-5-carboxamide] |
| < 100 | 210 to 215 | < 100 | COc1ncc(-c2nc(N3CCOCC3)c3sc(C(C)N(C)c4ncc(C(=O)NO)cn4)cc3n2)cn1 (stereo not drawn) [Compound 262, N-Hydroxy-2-((1-(2-(2-methoxypyrimidin-5-yl)-4-morpholinothieno[3,2-d]pyrimidin-6-yl)ethyl)(methyl)amino)pyrimidine-5-carboxamide] |
| < 100 | 202 to 207 | < 100 | COc1ncc(-c2nc(N3CCOCC3)c3sc(C(C)(C)Nc4ncc(C(=O)NO)cn4)cc3n2)cn1 [Compound 263, N-Hydroxy-2-(2-(2-(2-methoxypyrimidin-5-yl)-4-morpholinothieno[3,2-d]pyrimidin-6-yl)propan-2-ylamino)pyrimidine-5-carboxamide] |
| < 100 | 197 to 205 | < 100 | Nc1ccc(-c2nc(N3CCOCC3)c3sc(S(=O)(=O)Nc4ncc(C(=O)NO)cn4)cc3n2)cc1 [Compound 271, 2-[2-(4-Amino-phenyl)-4-morpholin-4-yl-thieno[3,2-d]pyrimidine-6-sulfonylamino]-pyrimidine-5-carboxylic acid hydroxyamide] |
| 100 to 1000 | 241 to 246 | < 100 | CN(Cc1cc2nc(-c3ccc(N)c(Cl)c3)nc(N3CCOCC3)c2s1)c1ncc(C(=O)NO)cn1 [Compound 275, 2-(((2-(4-Amino-3-chlorophenyl)-4-morpholinothieno[3,2-d]pyrimidin-6-yl)methyl)(methyl)amino)-N-hydroxypyrimidine-5-carboxamide] |
| < 100 | 203 to 206 | < 100 | CN(Cc1cc2nc(-c3ccc(N)c(F)c3)nc(N3CCOCC3)c2s1)c1ncc(C(=O)NO)cn1 [Compound 276, 2-(((2-(4-Amino-3-fluorophenyl)-4-morpholinothieno[3,2-d]pyrimidin-6-yl)methyl)(methyl)amino)-N-hydroxypyrimidine-5-carboxamide] |
| < 100 | 202 to 206 | < 100 | CN(Cc1cc2nc(-c3ccc(N)c([N+](=O)[O-])c3)nc(N3CCOCC3)c2s1)c1ncc(C(=O)NO)cn1 [Compound 278, 2-(((2-(4-Amino-3-nitrophenyl)-4-morpholinothieno[3,2-d]pyrimidin-6-yl)methyl)(methyl)amino)-N-hydroxypyrimidine-5-carboxamide] |
| < 100 | 214 to 218 | < 100 | CN(Cc1cc2nc(-c3ccc(N)c(O)c3)nc(N3CCOCC3)c2s1)c1ncc(C(=O)NO)cn1 [Compound 279, 2-(((2-(4-Amino-3-hydroxyphenyl)-4-morpholinothieno[3,2-d]pyrimidin-6-yl)methyl)(methyl)amino)-N-hydroxypyrimidine-5-carboxamide] |
| 100 to 1000 | 237 to 240 | < 100 | CN(Cc1cc2nc(-c3ccc(N)c(C#N)c3)nc(N3CCOCC3)c2s1)c1ncc(C(=O)NO)cn1 [Compound 280, 2-(((2-(4-Amino-3-cyanophenyl)-4-morpholinothieno[3,2-d]pyrimidin-6-yl)methyl)(methyl)amino)-N-hydroxypyrimidine-5-carboxamide] |
| 100 to 1000 | 156 to 158 | < 100 | CC(=O)c1cc(-c2nc(N3CCOCC3)c3sc(CN(C)c4ncc(C(=O)NO)cn4)cc3n2)ccc1N [Compound 281, 2-{[2-(3-Acetyl-4-amino-phenyl)-4-morpholin-4-yl-thieno[3,2-d]pyrimidin-6-ylmethyl]-methyl-amino}-pyrimidine-5-carboxylic acid hydroxyamide] |
| 100 to 1000 | 190 to 193 | < 100 | CN(Cc1cc2nc(-c3cc(F)c(N)c(F)c3)nc(N3CCOCC3)c2s1)c1ncc(C(=O)NO)cn1 [Compound 282, 2-(((2-(4-Amino-3,5-difluorophenyl)-4-morpholinothieno[3,2-d]pyrimidin-6-yl)methyl)(methyl)amino)-N-hydroxypyrimidine-5-carboxamide] |
| 100 to 1000 | 195 to 197 | < 100 | CN(Cc1cc2nc(-c3ccc(N)cc3F)nc(N3CCOCC3)c2s1)c1ncc(C(=O)NO)cn1 [Compound 283, 2-{[2-(4-Amino-2-fluoro-phenyl)-4-morpholin-4-yl-thieno[3,2-d]pyrimidin-6-ylmethyl]-methyl-amino}-pyrimidine-5-carboxylic acid hydroxyamide] |
| 100 to 1000 | 188 to 192 | < 100 | CN(Cc1cc2nc(-c3cccc(SCCO)c3)nc(N3CCOCC3)c2s1)c1ncc(C(=O)NO)cn1 [Compound 290, N-Hydroxy-2-(((2-(3-(2-hydroxyethylthio)phenyl)-4-morpholinothieno[3,2-d]pyrimidin-6-yl)methyl)(methyl)amino)pyrimidine-5-carboxamide] |
